The values that follow come from patent publication US11433038B2, “High concentration medicant solutions for treating neurological disorders” (Cerebral Therapeutics, Inc., priority 2017, dated 2022).

Entries after “also recorded” stand apart in the source; their conditions may differ. Structures can show the parent of a compound that is named as a salt.

For data set [1] the following is noted: on the order of; cited from earlier work.
The nature of data set [2]: pH titration of sodium valproate solutions (5 mL) with 25 mM HCl (FIG. 7).
Data set [3] is described as follows: pH of aqueous sodium valproate solutions. Format: physicochemical.
Data set [4] concerns human subjects. In words: subject-reported effects during direct brain (CSF) administration of valproate. Format: in vivo.
A short description of data set [5]: valproate concentration in blood serum and cerebrospinal fluid after administration was stopped (FIG. 1-3). Format: in vivo. Conditions: human subjects, FIG. 2.
Description: The subjects have been administered different dosage levels of valproate using different concentrations of valproate in solution. […] The subjects have been administered different dosage levels of valproate using different concentrations of valproate in solution. […] The subject has been administered 60 mg/day total of valproate using a pump which provides direct regional administration of valproate to the subject's brain using a 100 mg/mL solution.
For data set [6] the following is noted: reported solubility limit; cited from earlier work.
Data set [7] is described as follows: solubility of sodium valproate in water. Conditions: early emulsion experiments.
The mark [8] stands for this setting: 0.4% sodium citrate (13.6 mM) in 150 mg/mL (0.9 M) sodium valproate.
The mark [9] stands for this setting: 150 mg/mL sodium valproate, 5 mL, 25 mM HCl.

For the compound `NCC(CC(=O)O)c1ccc(Cl)cc1` (stereo not shown) [Baclofen], the half-life entry in data set [1] is “five”.

Take `O=C(O)CC(O)(CC(=O)O)C(=O)O` [sodium citrate]: in data set [2] (setting [8]), the “effect of sodium citrate on buffer capacity” value is “does not provide any measurable increase in buffering capacity above pH 7; also recorded: virtually no effect” and the “effect of sodium citrate on initial pH” value was “nor does it significantly change the initial pH”.

`CCCC(CCC)C(=O)[O-].[Na+]` [sodium valproate]: the pH of solution result in data set [3] (150 mg/mL sodium valproate in water) is given as “approximately 8.3”. In addition, the pH of solution result in data set [3] (more concentrated solutions (>350 mg/mL)) was “above 9”. Further, the “perception of body temperature” value in data set [4] (human subjects receiving valproate to the brain) is listed as “always cold”. For the same compound, the “nausea at therapeutic level” value in data set [4] (human subjects, on reaching a therapeutic level) was “feeling of nauseous which seems to pass over time”. Besides, the “concentration in cerebrospinal fluid over time” value in data set [5] was “drops quickly”. The “solubility limits in water, commonly reported” value in data set [6] was 50 to 100 mg/mL. In data set [2] (10 mM sodium valproate, 5 mL), the “volume of 25 mM HCl at which the pH hits the pKa” value is reported as 0.6 mL. Besides, the “pH at start of titration” value in data set [2] (10 mM sodium valproate, 5 mL, before acid) is listed as 6.6. In addition, the “pH after 0.6 mL of acid” value in data set [2] (10 mM sodium valproate, 5 mL, 0.6 mL of 25 mM HCl) came out at 4.81. In addition, the “pH after 0.7 mL of acid” value in data set [2] (10 mM sodium valproate, 5 mL, 0.7 mL of 25 mM HCl) is on record as 4.74. The “pH after 1 mL of acid” value in data set [2] (10 mM sodium valproate, 5 mL, 1 mL of 25 mM HCl added in 0.1 mL increments) came out at 4.36. In data set [2] (150 mg/mL sodium valproate), the “change in pH on titration” value is listed as “minimal”. For the same compound, in data set [2] (setting [9]), the “pH at last point of titration curve” value amounted to 7.30 and the “pH at second-to-last point of titration curve” value turned out to be 7.34. Also, in data set [2] (concentrated solutions of sodium valproate), the “buffering of concentrated solutions” value is listed as “strongly buffer solutions at pH>8”.

As to `CCCC(CCC)C(=O)O` [valproic acid], the “behaviour of emulsified droplets of pure valproic acid (liquid) in water” value in data set [7] is given as “dissolving into the water”.
